{"source": "patent US7902196B2", "about": "“Synthesis of avrainvillamide, strephacidin B, and analogues thereof” (President and Fellows of Harvard College, priority 2005, dated 2011)", "key": {"[1]": {"experiment": "stability in solution protected from light"}, "[2]": {"experiment": "decomposition of stephacidin B into avrainvillamide (FIG. 18)", "assay_type": "physicochemical"}, "apoptosis and necrosis": {"system": "apoptosis and necrosis", "experiment": "induction of apoptosis and necrosis (FIG. 20)", "assay_type": "cell-based", "description": "FIG. 20 induces apoptosis at 1-4 μM and necrosis at 8 μM."}, "[3]": {"system": "cultured human cancer cells", "settings": "reported for the fungal isolates; cited from earlier work"}, "[4]": {"system": "multidrug-resistant bacteria", "settings": "reported; cited from earlier work"}, "cell cycle": {"system": "cell cycle", "experiment": "effect of avrainvillamide on the cell cycle (FIG. 19)", "assay_type": "cell-based"}, "[5]": {"experiment": "1,5-addition of methanol-d4 to 2"}, "[6]": {"experiment": "interconversion of stephacidin B (1) and 2 in solution", "assay_type": "physicochemical", "settings": "50% DMSO-d6-CD3CN, 23° C.", "description": "Our preliminary studies leave little doubt that 1 and 2 are readily interconverted in solution. For example, concentration of an acetonitrile-water solution of pure synthetic stephacidin B (1) at 38° C. afforded a 2:1 mixture of 2 and 1, as well as unidentified decomposition products. Also, whereas solutions of pure 1 in 50% DMSO-d6-CD3CN appeared to be stable for at least 48 h at 23° C. (The merits of the DMSO-d6-CD3CN solvent system in stabilizing stephacidin B were discussed in Qian-Cutrone et al. J. Am. Chem. Soc. 2002, 124, 14556; incorporated herein by reference.), addition of powdered 3-Å molecular sieves led to partial retro-dimerization, giving a 2:1 mixture of 1 and 2 within 1 h at 23° C. We also observed partial transformation of 1 to form 2 upon exposure to silica gel (2D-TLC analysis). From the data thus far it is clear that (−)-2 and (+)-1 readily interconvert under mild conditions. […] In theory, the converse may be true, though this seems less likely, simply upon consideration of concentration effects. Our results also leave open the possibility that stephacidin B is an artifact of the isolation of 2; the converse may be true instead, though this would appear to be less likely."}}, "data": [{"molecule": "CC(C)(C)/C=C/C=[N+]([O-])c1ccccc1", "note": "[α-(trans-3,3-dimethyl-1-butenyl)-N-phenylnitrone]", "values": [{"measurement": "time stable in solution", "setting": "[1]; 37 mM solution in methylene-d2-chloride, 23° C., protected from light", "result": "at least 7 h"}, {"measurement": "stability upon concentration to dryness", "setting": "[1]; 1H NMR analysis", "result": "decomposed within two hours"}]}, {"molecule": "CC1(C)C=Cc2c(ccc3c2[N+]([O-])=C2C3=C[C@@]34NC(=O)[C@]5(CCCN5C3=O)C[C@H]4C2(C)C)O1", "note": "[avrainvillamide]", "values": [{"measurement": "species present under physiological conditions", "setting": "[2]", "result": "major species present under physiological conditions"}, {"measurement": "concentration inducing apoptosis", "setting": "apoptosis and necrosis", "result": "1 to 4", "unit": "µM"}, {"measurement": "concentration inducing necrosis", "setting": "apoptosis and necrosis", "result": 8, "unit": "µM"}, {"measurement": "antiproliferative activity", "setting": "[3]", "result": "exhibit antiproliferative activity"}, {"measurement": "antimicrobial activity", "setting": "[4]", "result": "anti-microbial activity against multidrug-resistant bacteria"}, {"measurement": "effect on the cell cycle", "setting": "cell cycle", "result": "induces arrest in G2/M"}, {"measurement": "equilibrium constant, methanol-d4 adducts combined to 2", "setting": "[5]; 23° C., tentative", "result": 7.7}, {"measurement": "time to form the products of 1,5-addition of methanol-d4", "setting": "[5]; pure methanol-d4, 23° C.", "result": "< 10", "unit": "min"}, {"measurement": "half-life", "setting": "[5]; solution in pure methanol-d4", "result": "< 10", "unit": "min"}]}, {"molecule": "CC1(C)C=Cc2c(ccc3c2[N+]([O-])=C2C3=C[C@@]34NC(=O)[C@]5(CCCN5C3=O)C[C@H]4C2(C)C)O1", "note": "[compound 1, avrainvillamide]", "values": [{"measurement": "antimicrobial activity", "setting": "[4]", "result": "antimicrobial activity against multidrug-resistant bacteria"}]}, {"molecule": "avrainvillamide [compound 1]", "values": [{"measurement": "time solutions appeared stable", "setting": "[6]", "result": "at least 48 h"}]}, {"molecule": "CC1(C)C=Cc2c(ccc3c2[N+]([O-])=C2C(C)(C)[C@@H]4C[C@]56CCCN5C(=O)C4(NC6=O)C4N5C(=O)C67CCCN6C(=O)[C@]56C(C7)C(C)(C)c5c(c7ccc8c(c7n5O)C=CC(C)(C)O8)[C@H]6C234)O1", "note": "(stereo partly drawn) [stephacidin B]", "values": [{"measurement": "avrainvillamide formed by decomposition of stephacidin B", "setting": "[2]", "result": 1.7, "unit": "equiv."}, {"measurement": "antiproliferative activity", "setting": "[3]", "result": "exhibit antiproliferative activity"}]}]}
